Laboratory results: article PMC12275138, “Identification of glycosylated flavonoids as new physiological ligands of the hazel allergen Cor a 1: Complex structures reveal different binding orientation and specificity of mono- and disaccharide derivatives” (Food Chemistry: X, 2025)

Experiments:
[1] = target: T1, Cor a 1.0101 (Corylus avellana, UniProt Q08407); assay: 1H, […] HSQC screening; assay type: binding; details: 60 µM protein, at least 5-fold ligand excess, pH 7.5
T1 construct: recombinant from E. coli, 15N labelled
T1 sequence (Q08407 2-160): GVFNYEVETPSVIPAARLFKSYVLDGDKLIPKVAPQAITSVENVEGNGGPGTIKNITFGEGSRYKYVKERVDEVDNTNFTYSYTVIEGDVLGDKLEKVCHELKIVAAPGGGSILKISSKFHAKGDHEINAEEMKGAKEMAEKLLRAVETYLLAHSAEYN

[2] = target: T2, Cor a 1.0302 (Corylus avellana, UniProt A0AA49EHN2); assay: 1H, […] HSQC screening; assay type: binding; details: 60 µM protein, at least 5-fold ligand excess, pH 7.5
T2 construct: recombinant from E. coli, 15N labelled
T2 sequence (A0AA49EHN2 1-159): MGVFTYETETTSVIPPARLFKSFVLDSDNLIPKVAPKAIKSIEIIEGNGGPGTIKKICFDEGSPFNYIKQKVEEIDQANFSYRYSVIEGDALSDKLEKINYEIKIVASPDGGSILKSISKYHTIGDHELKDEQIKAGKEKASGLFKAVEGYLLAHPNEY

Compound	1H,15N HSQC screening [1]	1H,15N HSQC screening [2]
O=c1c(O[C@@H]2O[C@H](CO)[C@@H](O)[C@H](O)[C@H]2O)c(-c2ccc(O)c(O)c2)oc2cc(O)cc(O)c12 [Q3OGlc]	All the other isoallergens bound to Q3OGlc, Q3OGal, and K3OR.	All the other isoallergens bound to Q3OGlc, Q3OGal, and K3OR.
C[C@@H]1O[C@@H](Oc2c(-c3ccc(O)cc3)oc3cc(O)cc(O)c3c2=O)[C@H](O)[C@H](O)[C@H]1O [K3OR]	All the other isoallergens bound to Q3OGlc, Q3OGal, and K3OR.	
